Results reported in patent US20100087534A1, “Use of a Photosensitizing Agent in the Treatment or Prevention of an Inflammation-Associated Disorder in the Gastrointestinal Tract of a Mammal” (priority 2005, published 2010).

Assays:
[1] = test system: IFN-γ; assay: IFN-γ expression index in colon of transfer colitis SCID mice (FIG. 2); type: in vivo
Protocol: (§1) FIG. 2 represents the expression indices of the proinflammatory markers IFN-γ and TNF-α in untransfered mice, disease control group and PDT group (15 mg/kg of δ-ALA, 10 J/cm^2).
(§2) Typically, the expression index of each pro-inflammatory marker of interest is calculated (normalized number of mRNA copies of each manipulated mice/normalized number of mRNA copies of the unmanipulated mice). The results are given as mean values of the expression index (unmanipulated mean mice index=1). […]
(§3) The third portion was used for measuring the expression of the molecules involved in immune and inflammatory phenomenons in the colonic mucosa (cytokines, chemokines). […] Quantification of reverse transcripted messenger RNA for GAPDH, the inducible nitric oxide synthetase (iNOS), interferon-gamma (IFN-γ), interleukin-1 receptor antagonist (IL1-Ra), tumor necrosis factor alpha (TNF-α), interleukin 6 (IL-6), tumor growth factor beta (TGF-13) and interleukin10 (IL-10) was performed by quantitative real-time PCR in a BioRad Real-time PCR iCycler using specific pairs of primers and the green fluorescence dye SYBR—Green®. GAPDH was used to normalize quantifications within each individual sample (normalization of the number of mRNA copies for the gene of interest/1 million mRNA copies of the GAPDH gene of the investigated mouse). […]

[2] = test system: TNF-α; assay: TNF-α expression index in colon of transfer colitis SCID mice (FIG. 2); type: in vivo
Protocol: as §1, §2, §3

[3] = Safety of colonoscopy and low/high dose PDT in wild type BALB/c mice
[4] = test system: TNF-α; assay: Expression index of TNF-α mRNA in illuminated colon, quantitative real-time PCR; type: in vivo, BALB/c mice
Source text: The third portion was used for measuring the expression of the molecules involved in immune and inflammatory phenomenons in the colonic mucosa (cytokines, chemokines). For RNA extraction this portion was conserved in RNA-later solution (Ambion Inc. Austin, USA) until processing. RNA was extracted from the tissues using a Rneasy Mini kit (Qiagen, Hombrechtikon, Switzerland). RNA samples were submitted to a second or third DNAse treatment in order to get rid of all traces of genomic DNA. Quality of the RNA samples was tested on agarose gels and absence of genomic DNA was tested by PCR using primers specific for a house keeping gene, glyceraldehydes-3-phosphate-dehydrogenase (GAPDH). RNA preparations were then submitted to reverse transcription using the ThermoScript™ RT-PCR system (Invitrogen, Basel, Switzerland) using an Oligo-dT as primer. Quantification of reverse transcripted messenger RNA for GAPDH, the inducible nitric oxide synthetase (iNOS), interferon-gamma (IFN-γ), interleukin-1 receptor antagonist (IL1-Ra), tumor necrosis factor alpha (TNF-α), interleukin 6 (IL-6), tumor growth factor beta (TGF-13) and interleukin10 (IL-10) was performed by quantitative real-time PCR in a BioRad Real-time PCR iCycler using specific pairs of primers and the green fluorescence dye SYBR—Green®. GAPDH was used to normalize quantifications within each individual sample (normalization of the number of mRNA copies for the gene of interest/1 million mRNA copies of the GAPDH gene of the investigated mouse). Expression of each gene of interest was finally calculated as an expression index (normalized number of mRNA copies of each manipulated mice/normalized number of mRNA copies of the unmanipulated mice) and the results are given as mean values of the expression index (unmanipulated mean mice index=1). Furthermore one kidney and a part of the liver were collected for pathological analysis to exclude hepato- or nephrotoxicity.

[5] = test system: CD4+ cells in the inflamed colonic mucosa; assay: Annexin-V mediated detection of apoptosis in CD4+ cells of colonic mucosa; type: in vivo, SCID mice; conditions: time zero reference 1.8±0.2%
Protocol: (§4) PDT was performed with a photosensitizing agent (δ-ALA) dose of 15 mg/kg, administered 3 hours before the illumination with the energy dose of 10 J/cm^2 per gastrointestinal tract tissue.
For Annexin-V mediated detection of apoptosis mice were sacrificed 4 or 20 hours after low dose PDT later. Untreated inflamed mice were also sacrificed and were considered as the time zero reference. In order to extract cells from the colonic mucosa, treated portions of the colons, or equivalent portions in untreated mice, were collected, cut into small pieces and individually incubated for 20 minutes at room temperature under constant agitation in a PBS solution containing 5 mM EDTA. […] Cells were then analyzed through a FACscan flowcytometer (Becton Dickinson), once in the absence of propidium iodide (PI) and once in the presence of PI in order to identify population of viable cells. The percentage of Annexin-V^+ cells within the CD4^+ population was finally calculated based on a forward and side scatter gated population consisting of viable cells (>98% of PI negative cells) and containing the most percentage of CD4^+ cells (>80%).

[6] = test system: SCID mice with TH1-mediated Crohn-like colitis after transfer of CD4+CD45RBhigh T-cells; assay: Histological analysis of colon after low dose PDT in transfer colitis (Example 2); type: in vivo
Protocol: Evolution of colitis in SCID mice was monitored every week by colonoscopic investigation after induction. Mice with moderately inflamed colons [endoscopic index of colitis severity (EICS) index 4-8] or marked inflamed colons (EICS 9-13) were randomly assigned to either a <<low dose>> PDT group or no treatment group (disease control group). Unmanipulated age-matched SCID mice served as negative controls.
as §4
The illumination time was 100 s, the wavelength 635 nm.
Mice were monitored by colonoscopy at day 3 and weeks 1, 2, 3 and 4 post PDT treatment. In addition to parameters investigated in example 1, CD4 immunostaining and apoptosis detection were performed.

[7] = 15 mg/kg δ-ALA, 10 J/cm^2, versus disease control group (FIG. 2)
[8] = 10 J/cm^2, 15 mg/kg δ-ALA, compared to "colonoscopy" mice, deduced from FIG. 2

Structure (SMILES): NCC(=O)CCC(=O)O [δ-ALA, 5-aminolevulinic acid]
- expression index IFN-γ after low dose PDT [1, 7]: decreased significantly
- decrease of the expression of pro-inflammatory marker IFN-γ [1, 8]: 73%
- expression index TNF-α after low dose PDT [2, 7]: decreased significantly
- decrease of the expression of pro-inflammatory marker TNF-α [2, 8]: 63%
- signs of skin phototoxicity ([3]; all experimental groups): no signs of skin phototoxicity were observed
- histology of colon (microscopic changes) ([3]; all groups other than high dose PDT): no microscopic changes were observed
- exterior aspect of mice (quality of life) ([3]; all groups other than high dose PDT (low dose PDT, δ-ALA only), 74 h observation): the exterior aspect of mice remained unchanged
- changes in the blood formula ([3]; any of the experimental conditions, 0 and 74 h): No significant changes in the blood formula were seen
- inflammatory cells by anti-MAC immunostaining ([3]; high dose PDT, compared to naïve mice): an increase of inflammatory cells was observed
- inflammatory cells by anti-MAC immunostaining ([3]; low dose PDT): did not lead to an increase in inflammatory cells
- macroscopic aspect of colon ([3]; low dose PDT, 74 hours): the colon appeared macroscopically normal
- expression index TNF-α ([4]; high dose PDT: 50 J/cm^2, 60 mg δ-ALA, 74 h, unmanipulated mice index=1): 5.19±0.93
- expression index TNF α ([4]; low dose PDT 15 mg/kg δ-ALA, 10 J/cm2): 1.16±0.21
- expression index TNF α ([4]; low dose PDT 5J/cm2, 15 mg/kg δ-ALA): 4.49±2.86
- percentage of Annexin V+ cells in the CD4+/PI- population ([5]; 4 hours after low dose PDT, P=0.0043): 3.0±0.3%
- percentage of Annexin V+ cells in the CD4+/PI- population ([5]; 20 hours after low dose PDT, P=0.0012): 4.6±0.5%
- histology of illuminated portion of colon ([6]; PDT-treated mice, illuminated portion): a normal mucosa with low cellular infiltration
- histological score of inflammation ([6]; marked inflamed mice, 3 days after PDT, DC mice 7.7±0.6, P=0.0250): 4.6±0.8
